Results on 14 compounds are retold here after patent publication US3987047A, “Tetrahydro-azepinoquinolines” (Boehringer Ingelheim GmbH, priority 1973, dated 1976).

Counter-ions that a name gives are not always drawn.

One data set relates to Male albino rats. In words: Anorectic test (effect on food intake of fasted rats). It is filed as in vivo. The conditions noted are these: sc; rat; dose which reduced the food intake by 50% over the reference value; 2 hour test period. As to the method:
Male albino rats with starting weights from 200 to 250 gm, kept in so-called makrolon-cages, three to a cage, in an air-conditioned room at a temperature of 22 ± 1° C and about 50 % relative humidity. Between test runs, food (standard feed Altromin R) and drinking water were freely accessible.
A combination metabolism and motility test cage, described by J. M. van ROSSUM and F. SIMONS (Psychopharmacologia 14, 248, 1969) was used. With the aid of this device it is possible to measure the food intake and motoric activity on the same test animal.
For effecting and evaluating this test, a modified version of the method of J. SPENGLER and P. WASER [Arch. exp. Path. Pharmcol. 237, 171 (1959)] was used. A test group consisting of 6 ats was used for the test over a 3months' period, once a week, always on the same day of the week and at the same time of day. In preparation for the test, the animals were fasted for 24 hours while they had free access to drinking water. Then, they were put singly into the above-mentioned test cage for 2 hours, where a preweighed quantity of feed (Altromin-R, pulverized) and drinking water was offered ad libitum. Scattered feed was collected carefully, the consumed quantity of feed was determined by weighing the remaining quantity, and the food intake was calculated in terms of grams per 100 gm body weight. the test compound was injected subcutaneously or administered orally by esophageal sound at the beginning of the test period. […] Therefore, each group served as its own control. In the control tests the rats were given at the beginning of the 2 hour test period, 0.1 ml/100 gm water orally or 0.1 ml/100 gm physiological NaCl-solution subcutaneously. Before the test runs, 3 to 4 control tests were made and repeated later at intervals of 5 weeks. The average amount of the food intake which the animals had shown in the control tests was taken as the reference value. The anorectic activity of the test compound was expressed in terms of the percentage reduction of this reference value, and the median anorectic dose (ED50), i.e. the dose which reduced the food intake by 50% over the reference value was graphically calculated.

Data set [1] is described as follows: Acute toxicity (LD50 in mice). Particulars: in vivo, sc; for selectivity ratio: LD50 mouse s.c. / anorectic ED50 rat s.c., read-out: Therapeutic ratio LD50/ED50; for LD50 at 24 h: mouse, 24 hours observation. As to the method: Groups of 10 male mice of the NMRI-strain with body weights between 18 and 30 gm. The animals were put individually into cylindrical jars and received by subcutaneous injection under the dorsal skin gradually increasing doses from 0.1 to 0.2 ml/10 gm of body weight of the test compound. The limits for the test dosage range had previously been determined on individual mice. The symptoms of poisoning were recorded. After an observation period of 24 hours the dead animals were counted. The determination of the median lethal dose (LD50) according to G. KARBER [Arch. exper. Path. Pharmak. 162, 480, (1931)] concluded the test.

Broadly, the ED50 is the dose that gives a 50% effect, or the effect in half of the subjects. A word on the LD50: it is the dose expected to kill half of the subjects tested. Consider `CCN1CCc2nc3ccccc3c(C)c2CC1.Cl.Cl` [A, 3-ethyl-1,2,4,5-tetrahydro-11-methyl-3H-azepino[4,5-b]quinoline dihydrochloride], for which the ED50 with Male albino rats was found to be 1.9 mg/kg. For the same compound, in data set [1], the selectivity ratio came out at 95 and the LD50 at 24 h worked out at 180 mg/kg.

Take `Cc1c2c(nc3ccccc13)CCCNC2.Cl.Cl` [B, 2,3,4,5-tetrahydro-11-methyl-1H-azepino[4,3-b]quinoline dihydrochloride]: the ED50 in the data set with Male albino rats came out at 1.1 mg/kg. Moreover, in data set [1], the selectivity ratio was found to be 177 and the LD50 at 24 h is 195 mg/kg.

In the case of `Cc1c2c(nc3ccccc13)CCNCC2.Cl.Cl` [C, 1,2,4,5-tetrahydro-11-methyl-3H-azepino[4,5-b]quinoline dihydrochloride], in the data set with Male albino rats, the ED50 amounted to 0.2 mg/kg. Also, in data set [1], the selectivity ratio worked out at 415 and the LD50 at 24 h is 83 mg/kg.

In the case of `CCCc1c2c(nc3ccccc13)CCNCC2.Cl.Cl` [Compound E, 1,2,4,5-tetrahydro-11-propyl-3H-azepino[4,5-b]quinoline dihydrochloride], the ED50 in the data set on Male albino rats came out at 0.9 mg/kg. Further, in data set [1], the selectivity ratio is 164 and the LD50 at 24 h is 148 mg/kg.

`CCOC(=O)N1CCc2nc3ccccc3c(C)c2CC1` [D, 1,2,4,5-tetrahydro-11-methyl-3-azepino[4,5-b]quinoline-carboxylic acid ethyl ester]: the ED50 with Male albino rats is 0.8 mg/kg. In data set [1], the selectivity ratio is 1010 and the LD50 at 24 h came out at 810 mg/kg.

`Cc1c2c(nc3ccc(Cl)cc13)CCNCC2.Cl.Cl` [F, 9-chloro-1,2,4,5-tetrahydro-11-methyl-3H-azepino[4,5-b]quinoline dihydrochloride]: the ED50 in the data set with Male albino rats was 1.5 mg/kg. Also, in data set [1], the selectivity ratio was determined as 143 and the LD50 at 24 h came out at 215 mg/kg.

For the compound `Cc1c2c([n+]([O-])c3ccccc13)CCNCC2` [G, 1,2,4,5-tetrahydro-11-methyl-3H-azepino[4,5-b]quinoline-6-N-oxide hydrochloride], the ED50 in the data set on Male albino rats worked out at 0.8 mg/kg. Besides, in data set [1], the selectivity ratio is 394 and the LD50 at 24 h was 315 mg/kg.

`Cc1c2c(nc3ccccc13)C(O)CNCC2.Cl.Cl` (stereo not drawn) [H, 5-hydroxy-1,2,4,5-tetrahydro-11-methyl-3H-azepino[4,5-b]quinoline dihydrochloride]: the ED50 in the data set on Male albino rats was 0.3 mg/kg. For the same compound, in data set [1], the selectivity ratio was 420 and the LD50 at 24 h came out at 126 mg/kg.

In the case of `CCCN1CCc2nc3ccccc3c(C)c2CC1.Cl.Cl` [I, 1,2,4,5-tetrahydro-11-methyl-3propyl-3H-azepino[4,5-b]quinoline dihydrochloride], in the data set with Male albino rats, the ED50 worked out at 0.9 mg/kg.

Take `Cc1c2c(nc3ccccc13)CCN(C(=O)OC(C)(C)C)CC2.Cl` [J, 1,2,4,5-tetrahydro-11-methyl-3azepino[4,5-b]quinoline-carboxylic acid tert.butyl ester hydrochloride]: the ED50 in the data set with Male albino rats is 1.1 mg/kg.

Consider `Cc1c2c(nc3cccc(Cl)c13)CCNCC2` [K, 10-chloro-1,2,4,5-tetrahydro-11-methyl-3H-azepino[4,5-b]quinoline dihydrochloide], for which the ED50 in the data set on Male albino rats was 1.3 mg/kg.

Take `CCOC(=O)N1CCc2c(nc3ccccc3c2C)C(O)C1` (stereo not drawn) [L, 5-hydroxy-1,2,4,5-tetrahydro-11-methyl-3-azepino[4,5-b]quinoline-carboxylic acid ethyl ester]: the median effective dose (ED50) in the data set with Male albino rats is 4 mg/kg.

For the compound `Cc1c2c(nc3ccccc13)CCN(CC(C)O)CC2.Cl.Cl` (stereo not drawn) [M, 3-(2-hydroxy-propyl)-1,2,4,5-tetrahydro-11-methyl-3H-azepino[4,5-b]quinoline dihydrochloride], the ED50 in the data set with Male albino rats came to 2 mg/kg.

Turning to `COC(=O)N1CCc2nc3ccccc3c(C)c2CC1` [N, 1,2,4,5-tetrahydro-11-methyl-3-azepino[4,5-b]quinoline-carboxylic acid methyl ester], the ED50 in the data set with Male albino rats was 1.8 mg/kg.
